Assays:
Assay type in all cases: cell-based
[1] = biological target: T1, human TLR9 (Homo sapiens, UniProt Q9NR96); experiment: TLR9 inhibition reporter assay (HEK-Blue cells, SEAP reporter, ODN2006 stimulation); conditions: HEK-Blue cells overexpressing human TLR9, SEAP reporter, ODN2006 5 nM
T1 construct: host or cells: HEK-Blue cells
T1 sequence (Q9NR96 26-1032): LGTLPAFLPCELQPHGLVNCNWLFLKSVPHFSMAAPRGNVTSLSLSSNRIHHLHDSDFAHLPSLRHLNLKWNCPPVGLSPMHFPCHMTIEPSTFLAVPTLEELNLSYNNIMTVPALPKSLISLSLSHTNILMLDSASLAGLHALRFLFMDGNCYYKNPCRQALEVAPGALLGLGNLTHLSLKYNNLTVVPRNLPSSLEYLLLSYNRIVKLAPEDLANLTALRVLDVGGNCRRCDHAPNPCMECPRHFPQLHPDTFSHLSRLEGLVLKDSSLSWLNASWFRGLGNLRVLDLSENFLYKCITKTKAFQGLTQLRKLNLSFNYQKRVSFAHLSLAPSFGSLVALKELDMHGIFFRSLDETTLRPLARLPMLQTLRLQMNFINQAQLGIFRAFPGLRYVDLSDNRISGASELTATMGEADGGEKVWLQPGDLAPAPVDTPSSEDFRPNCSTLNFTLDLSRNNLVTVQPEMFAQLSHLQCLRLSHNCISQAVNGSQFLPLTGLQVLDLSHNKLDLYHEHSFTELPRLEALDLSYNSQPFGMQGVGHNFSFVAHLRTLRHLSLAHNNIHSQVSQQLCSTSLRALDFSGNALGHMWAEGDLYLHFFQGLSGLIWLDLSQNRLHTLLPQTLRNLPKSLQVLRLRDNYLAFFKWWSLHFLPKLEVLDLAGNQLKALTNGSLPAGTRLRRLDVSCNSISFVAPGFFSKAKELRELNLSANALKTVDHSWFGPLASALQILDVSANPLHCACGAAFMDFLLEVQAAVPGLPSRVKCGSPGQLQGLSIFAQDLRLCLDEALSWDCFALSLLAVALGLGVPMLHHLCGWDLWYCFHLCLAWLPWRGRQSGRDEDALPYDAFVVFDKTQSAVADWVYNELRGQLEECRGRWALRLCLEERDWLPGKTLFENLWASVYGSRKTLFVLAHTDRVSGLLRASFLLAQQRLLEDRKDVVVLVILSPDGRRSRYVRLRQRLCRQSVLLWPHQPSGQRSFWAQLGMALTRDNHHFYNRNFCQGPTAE
How it was run: (§1)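 SEAP readout after 22 h agonist exposure at 37 °C; final agonist levels were 7.5 μM gardiquimod (TLR7), 15.9 μM R848 (TLR8) and 5 nM ODN2006 (TLR9). Inhibitors, spanning 0.05 nM to 50 μM final, were applied 30 min beforehand.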

[2] = biological target: T2, human TLR7 (Homo sapiens, UniProt Q9NYK1); experiment: TLR7 inhibition reporter assay (HEK-Blue cells, SEAP reporter, gardiquimod stimulation); conditions: HEK-Blue cells overexpressing human TLR7, SEAP reporter, gardiquimod 7.5 μM
T2 construct: host or cells: HEK-Blue cells
T2 sequence (Q9NYK1 27-1049): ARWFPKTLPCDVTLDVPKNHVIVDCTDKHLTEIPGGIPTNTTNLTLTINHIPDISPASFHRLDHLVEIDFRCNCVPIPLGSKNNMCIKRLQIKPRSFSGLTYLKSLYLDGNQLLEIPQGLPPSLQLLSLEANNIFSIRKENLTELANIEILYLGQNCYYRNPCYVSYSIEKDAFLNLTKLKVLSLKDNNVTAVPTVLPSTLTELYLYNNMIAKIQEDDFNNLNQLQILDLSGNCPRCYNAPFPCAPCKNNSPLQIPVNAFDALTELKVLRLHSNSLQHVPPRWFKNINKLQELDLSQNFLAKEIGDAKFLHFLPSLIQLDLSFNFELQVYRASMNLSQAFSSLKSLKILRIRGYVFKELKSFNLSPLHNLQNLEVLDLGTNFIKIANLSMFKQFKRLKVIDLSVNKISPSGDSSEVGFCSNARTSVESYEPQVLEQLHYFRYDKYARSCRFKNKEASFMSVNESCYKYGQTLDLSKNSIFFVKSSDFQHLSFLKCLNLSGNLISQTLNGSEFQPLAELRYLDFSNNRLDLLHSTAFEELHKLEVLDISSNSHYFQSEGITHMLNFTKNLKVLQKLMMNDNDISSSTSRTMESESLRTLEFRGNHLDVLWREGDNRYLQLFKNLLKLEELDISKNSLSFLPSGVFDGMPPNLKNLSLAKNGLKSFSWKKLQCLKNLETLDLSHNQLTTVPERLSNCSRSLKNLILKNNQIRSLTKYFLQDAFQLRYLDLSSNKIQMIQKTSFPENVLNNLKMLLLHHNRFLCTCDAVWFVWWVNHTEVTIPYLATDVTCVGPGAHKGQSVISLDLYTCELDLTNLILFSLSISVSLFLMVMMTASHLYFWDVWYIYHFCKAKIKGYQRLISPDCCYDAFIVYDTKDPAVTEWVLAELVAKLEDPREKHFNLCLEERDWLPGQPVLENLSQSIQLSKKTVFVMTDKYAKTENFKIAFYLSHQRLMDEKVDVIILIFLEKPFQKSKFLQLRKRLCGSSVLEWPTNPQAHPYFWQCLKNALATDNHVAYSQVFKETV
How it was run: as §1

[3] = biological target: T3, human TLR8 (Homo sapiens, UniProt Q9NR97); experiment: TLR8 inhibition reporter assay (HEK-Blue cells, SEAP reporter, R848 stimulation); conditions: HEK-Blue cells overexpressing human TLR8, SEAP reporter, R848 15.9 μM
T3 construct: host or cells: HEK-Blue cells
T3 sequence (Q9NR97 27-1041): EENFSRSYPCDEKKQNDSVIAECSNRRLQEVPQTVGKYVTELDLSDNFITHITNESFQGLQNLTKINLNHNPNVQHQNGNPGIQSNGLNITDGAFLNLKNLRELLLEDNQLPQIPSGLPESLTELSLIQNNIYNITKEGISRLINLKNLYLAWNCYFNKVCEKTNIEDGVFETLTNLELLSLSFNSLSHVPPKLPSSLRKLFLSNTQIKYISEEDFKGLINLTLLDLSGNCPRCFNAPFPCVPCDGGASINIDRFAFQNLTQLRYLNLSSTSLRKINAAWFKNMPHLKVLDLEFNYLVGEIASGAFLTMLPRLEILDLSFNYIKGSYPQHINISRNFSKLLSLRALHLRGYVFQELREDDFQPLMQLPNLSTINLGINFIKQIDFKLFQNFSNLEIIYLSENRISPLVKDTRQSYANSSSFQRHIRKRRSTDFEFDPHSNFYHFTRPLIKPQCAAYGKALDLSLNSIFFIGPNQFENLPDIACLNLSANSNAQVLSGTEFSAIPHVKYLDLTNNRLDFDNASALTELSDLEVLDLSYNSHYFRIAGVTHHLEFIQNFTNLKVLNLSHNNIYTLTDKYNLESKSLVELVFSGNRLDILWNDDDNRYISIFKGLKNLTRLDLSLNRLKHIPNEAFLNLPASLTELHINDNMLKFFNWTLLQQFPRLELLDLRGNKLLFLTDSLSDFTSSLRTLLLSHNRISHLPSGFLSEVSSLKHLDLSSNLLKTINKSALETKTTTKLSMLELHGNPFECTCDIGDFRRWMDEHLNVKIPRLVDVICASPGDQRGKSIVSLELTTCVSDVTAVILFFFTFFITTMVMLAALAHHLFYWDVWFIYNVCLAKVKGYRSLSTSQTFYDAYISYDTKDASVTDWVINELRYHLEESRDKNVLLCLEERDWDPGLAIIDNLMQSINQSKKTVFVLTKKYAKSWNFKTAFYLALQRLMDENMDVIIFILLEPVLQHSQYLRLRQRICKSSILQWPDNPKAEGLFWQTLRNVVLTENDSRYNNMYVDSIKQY
How it was run: as §1

Row | IC50 [1] [nM] | IC50 [2] [nM] | IC50 [3] [nM] | SMILES
1 | 2110 | 1 | 6.1 | COc1cc(-c2[nH]c3ccc(C4CCC(N5CCC[C@H]5C(N)=O)CC4)cc3c2C(C)C)cn2ncnc12 (stereo partly drawn) [Example 31]
2 | 170 | 0.14 | 0.16 | COc1cc(-c2[nH]c3ccc(C4CCC(N5CC[C@H](N(C)C)C5)CC4)cc3c2C(C)C)cn2ncnc12 (stereo partly drawn) [Example 32]
3 | 491 | 2 | 3.4 | COc1cc(-c2[nH]c3ccc(C4CCC(N5CC[C@H](N(C)C)C5)CC4)cc3c2C(C)C)cn2ncnc12 (stereo partly drawn) [Example 33]
4 | 20500 | 5 | 23 | COc1cc(-c2[nH]c3ccc(C4CCC(N5CCCC(F)(F)C5)CC4)cc3c2C(C)C)cn2ncnc12 (stereo not drawn) [Example 34]
5 | 18000 | 55 | 122 | COc1cc(-c2[nH]c3ccc(C4CCC(N5CCCC(F)(F)C5)CC4)cc3c2C(C)C)cn2ncnc12 (stereo not drawn) [Example 35]
6 | 2510 | 0.75 | 1.2 | COc1cc(-c2[nH]c3ccc(C4CCC(N5C[C@@H](C)O[C@@H](C)C5)CC4)cc3c2C(C)C)cn2ncnc12 (stereo partly drawn) [Example 40]
7 | 2280 | 4 | 7.7 | COc1cc(-c2[nH]c3ccc(C4CCC(N5CC(C)OC(C)C5)CC4)cc3c2C(C)C)cn2ncnc12 (stereo not drawn) [Example 41]
8 | 2610 | 0.2 | 1 | COc1cc(-c2[nH]c3ccc(C4CCC(NC5(C)CC5)CC4)cc3c2C(C)C)cn2ncnc12 (stereo not drawn) [Example 42]
9 | 4370 | 1 | 13 | COc1cc(-c2[nH]c3ccc(C4CCC(NC5(C)CC5)CC4)cc3c2C(C)C)cn2ncnc12 (stereo not drawn) [Example 43]
10 | 1850 | 0.55 | 0.4 | Cc1c(-c2[nH]c3ccc(C4CCC(NC5(C)COC5)CC4)cc3c2C(C)C)cn2ncnc2c1C (stereo not drawn) [Example 48]
11 | 618 | 2 | 3.3 | Cc1cc(-c2[nH]c3ccc(C4CCC(N5CCOCC5)CC4)cc3c2C(C)C)cc(C)n1 (stereo not drawn) [Example 54]
12 | 480 | 8 | 15 | Cc1cc(-c2[nH]c3ccc(C4CCC(N5CCOCC5)CC4)cc3c2C(C)C)cc(C)n1 (stereo not drawn) [Example 55]
13 | 6060 | 1 | 8.2 | Cc1cc(-c2[nH]c3ccc(C4CCC(NC5COC5)CC4)cc3c2C(C)C)cn2ncnc12 (stereo not drawn) [Example 57]
14 | 3140 | 0.14 | 0.88 | Cc1cc(-c2[nH]c3ccc(C4CCC(NC5COC5)CC4)cc3c2C(C)C)cn2ncnc12 (stereo not drawn) [Example 59]
15 | 501 | 0.26 | 1.8 | Cc1cc(-c2[nH]c3ccc(C4CCC(NC5COC5)CC4)cc3c2C(C)C)cc(C)n1 (stereo not drawn) [Example 60]
16 | 201 | 1 | 3.9 | Cc1cc(-c2[nH]c3ccc(C4CCC(NC5COC5)CC4)cc3c2C(C)C)cc(C)n1 (stereo not drawn) [Example 61]
17 | 1830 | 0.98 | 6.3 | CCN(C)C1CCC(c2ccc3[nH]c(-c4cc(C)c5ncnn5c4)c(C(C)C)c3c2)CC1 (stereo not drawn) [Example 62]
18 | 5920 | 0.81 | 5.9 | CCN(C)C1CCC(c2ccc3[nH]c(-c4cc(C)c5ncnn5c4)c(C(C)C)c3c2)CC1 (stereo not drawn) [Example 63]
19 | 3030 | 0.15 | 0.87 | COc1cc(-c2[nH]c3ccc(C4CCC(NC5COC5)CC4)cc3c2C(C)C)cn2ncnc12 (stereo not drawn) [Example 64]
20 | 1670 | 0.22 | 0.59 | COc1cc(-c2[nH]c3ccc(C4CCC(N5CCOCC5)CC4)cc3c2C(C)C)cn2ncnc12 (stereo not drawn) [Example 69]
21 | 4410 | 0.68 | 2.7 | COc1cc(-c2[nH]c3ccc(C4CCC(N5CCNC(=O)C5)CC4)cc3c2C(C)C)cn2ncnc12 (stereo not drawn) [Example 71]
22 | 1590 | 0.32 | 0.58 | COc1cc(-c2[nH]c3ccc(C4CCC(N5CC6(COC6)C5)CC4)cc3c2C(C)C)cn2ncnc12 (stereo not drawn) [Example 73]
23 | 24500 | 3 | 13 | COc1cc(-c2[nH]c3ccc(C4CCC(N(C)CC(F)F)CC4)cc3c2C(C)C)cn2ncnc12 (stereo not drawn) [Example 74]
24 | 4760 | 0.87 | 2 | COc1cc(-c2[nH]c3ccc(C4CCC(N(C)CCC(F)(F)F)CC4)cc3c2C(C)C)cn2ncnc12 (stereo not drawn) [Example 75]
25 | 2250 | 1 | 5.7 | COc1cc(-c2[nH]c3ccc(C4CCC(N5CCOCC5)CC4)cc3c2C(C)C)cn2ncnc12 (stereo not drawn) [Example 76]
26 | 1920 | 1 | 3.1 | COc1cc(-c2[nH]c3ccc(C4CCC(N5CCC5)CC4)cc3c2C(C)C)cn2ncnc12 (stereo not drawn) [Example 77]
27 | 16800 | 3 | 32 | COc1cc(-c2[nH]c3ccc(C4CCC(N5CCNC(=O)C5)CC4)cc3c2C(C)C)cn2ncnc12 (stereo not drawn) [Example 78]
